Results on one molecule are retold here after patent US20060135773A1, “Trisubstituted nitrogen modulators of tyrosine phosphatases” (priority 2004, published 2006).

One assay has as its target T1, PTP-1B (Homo sapiens, UniProt P18031).
T1 construct: PTP-1B (purified, 1 mg/mL) as a 1:250 dilution
T1 sequence (P18031 1-321 limits assumed): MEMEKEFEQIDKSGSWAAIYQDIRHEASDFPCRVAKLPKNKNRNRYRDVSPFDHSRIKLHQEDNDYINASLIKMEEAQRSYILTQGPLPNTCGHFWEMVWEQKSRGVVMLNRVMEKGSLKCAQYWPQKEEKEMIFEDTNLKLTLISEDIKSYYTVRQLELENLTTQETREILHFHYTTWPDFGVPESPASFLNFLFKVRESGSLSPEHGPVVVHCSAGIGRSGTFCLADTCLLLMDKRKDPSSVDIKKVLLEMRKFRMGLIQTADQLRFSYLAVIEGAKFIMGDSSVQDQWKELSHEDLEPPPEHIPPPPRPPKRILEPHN
Description: pNPP tyrosine phosphatase inhibition assay, PTP-1B. The format is biochemical. The method in brief:
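Test compounds were screened at two final levels, 31.3 and 10 µM, against 4 µg/mL purified PTP-1B. The substrate was 10 mM p-nitrophenyl phosphate, with incubation for 10 min at 30°C before a K2CO3 quench. Activity was taken from A405.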

Assay [1] deals with pIR (phosphorylated insulin receptor) in FAO cells. As to the kind of experiment: IR phosphorylation assay in FAO cells (pIR ELISA / Western). The format is cell-based, rat. Particulars: 10 nM insulin and 10 μM compound. The source says: Antibodies and Chemicals. The antibody against phosphorylated insulin receptor (pIR) and the ELISA kit for detection of pIR were from Biosource (Camarillo, Calif.). Rabbit anti-IR/IGF-IR [pYpY1162/1163] phosphospecific antibody recognizes both the insulin receptor (IR) and the insulin-like growth factor-1 receptor (IGF-1R) phosphorylated at the active site tyrosine residues, 1162 and 1163 (1135 and 1136 for IGF-1R) (pIR/pIGF-1R). The Insulin Receptor [pYpY1162/1163] […] HRP-conjugated secondary antibodies were from Cell Signaling Technology (Beverly, Mass.). The ECL detection system was from Amersham (Buckinghamshire, UK), and human insulin was from Invitrogen (Carlsbad, Calif.).
Tissue Culture. FAO rat hepatoma cells were obtained from ECACC (#89042701) and maintained at 37° C. in a 5% CO2 environment in Dulbecco's modified Eagle's medium with high glucose (DMEM-high glucose) (4500 mg/liter) supplemented with 10% FBS and 50 units/ml penicillin, 100 μg/ml streptomycin and 0.292 mg/ml L-glutamine. For assays, cells were seeded in 24-well plates at a density of 2×10^5 cells/well and maintained until they reached confluency (about 3 days).
IR phosphorylation assays. Cells in 24-well plates were serum starved overnight in DMEM-low glucose (1000 mg/liter) without serum. […] The pIR/pIGF-1R signals were scanned (HP scanjet 3570c) and quantified (Scion Image). […]

Like-named read-outs stand apart in the source and are kept apart here.

For `COc1ccccc1S(=O)(=O)N(Cc1ccc(-c2cccc(C#N)c2)cc1)Cc1ccc(C(F)(F)P(=O)(O)OC(C)OC(=O)OC(C)C)c(Cl)c1` (stereo not drawn) [Compound 218, [(2-Chloro-4-{[(3′-cyano-biphenyl-4-ylmethyl)-(2-methoxy-benzenesulfonyl)-amino]-methyl}-phenyl)-difluoro-methyl]-phosphonic acid mono-(1-isopropoxycarbonyloxy-ethyl) ester], the IC50 fell in the range of 2.5 to 25 µM at PTP-1B (in vitro activity of the prodrug, range as in Table 1, read-out: in vitro activity) and 2.5 to 25 µM at PTP-1B (pNPP assay, PTP-1B, read-out: Activity Class (IC50 ranges)). For the same molecule, the “insulin-induced accumulation of pIR, % of 300 nM insulin pIR signal” value in assay [1] is recorded as “about 80 % of 300 nM insulin pIR signal”.
